Measurements as given in US20260191999A1, “COMPOUNDS AND THEIR USE” (KING'S COLLEGE LONDON, priority 2022, published 2026).

Key:
[1] = system: A549-WT and A549-KO-ALDH1A1 human lung cancer cells; experiment: Cell uptake of radiotracer, A549-WT vs A549-KO-ALDH1A1; format: cell-based; details: ALDH1A1 positive vs ALDH1A1 negative cell line
Description: A549-KO-ALDH1A1 cells were obtained using an ALDH1A1 human gene knockout kit (Cat #KN400723) according to manufacturer's instructions (Origene, Rockville, MD, USA). Briefly, 3×10^5 A549 cells were seeded into a 6-well plate and maintained for 24 hours at 37° C., 5% CO2. Lipofectamine 3000 (Cat #L^3000, Invitrogen) was mixed with 1 μg of gRNA vector (pCas-guide) and 1 μg of donor template in Opti-MEM and added to cells for 16 hours. The next day, the transfection medium was removed and replaced with fresh medium. Forty-eight hours post-transfection, medium was replaced with fresh medium containing 0.5 μg/mL of puromycin (Cat #A1113803) which caused 100% cell death in non-transfected control cells after 5 days. Cells resistant to puromycin were subjected to clonal selection by the limiting dilution method. Knockout of protein was confirmed by western blots.
(§1) For cell uptake studies SKOV3-ip1 and SKOV3-TRip2, A549-WT, A549-KO-ALDH1A1, HEK293-WT and HEK293-ALDH1A1 cells were plated in 6 well plates 24 h prior to the studies, as described above (Western Blotting). One mL of fresh media containing 0.37 MBq of PQM-H-001 and 6 KBq PQM-H-002 was added to each well for the desired incubation time. At 40 min, plates were placed on ice, washed three times with ice-cold PBS to remove exogenous radioactivity and lysed in RIPA buffer ([…]; Fisher Scientific Ltd).
(§2) For all cell uptake and efflux study decay-corrected radioactivity in lysates was determined on a gamma counter ([…]; Wallac 1282 CompuGamma counter), with the remaining cell lysate centrifuged (21,000×g for 10 min at 4° C.) and the supernatant used to determine protein concentration following radioactive decay using a Pierce BCA assay. To quantify radiotracer uptake in cells, three standard solutions of the radioactivity-containing medium were counted on the gamma counter. Data were expressed as a percentage of total radioactivity administered to cells per mg of protein.
The following compounds were profiled in A549-WT (positive ALDH1A1) and A549-KO-ALDH1A1 (negative for ALDH1A1) human lung cancer cells as well as HEK293-WT (negative for ALDH1A1) and HEK293-ALDH1A1 (positive for ALDH1A1) human embryonic kidney cells. The fold difference in radiotracer retention for the ALDH1A1 positive cell lines as compared to the ALDH1A1 negative cell lines for each compound is shown in Table 2.

[2] = system: HEK293-ALDH1A1 and HEK293-WT human embryonic kidney cells; experiment: Cell uptake of radiotracer, HEK293-ALDH1A1 vs HEK293-WT; format: cell-based; details: ALDH1A1 positive vs ALDH1A1 negative cell line
Description: HEK293 stably overexpressing ALDH1A1 were obtained by infecting cells with lentiviral particles containing the nucleotide sequences encoding for human ALDH1A1 (Origene RC200723L^4V LentiORF particles (mGFP-tagged)). Briefly, 1×10^4 HEK-293 cells were seeded into a 24-well plate and maintained for 24 hours at 37° C., 5% CO2. Cells were then infected with the lentiviral particles using a multiplicity of infection (MOI) of 10 in the presence of hexadimethrine bromide (6 μg/mL) (Sigma-Aldrich, St. Louis, MO, USA). The next day, medium was removed and replaced with fresh medium. At 36 h post-infection, medium was replaced with complete culture medium containing puromycin (1 μg/ml) which caused 100% cell death in non-transduced control cells after 5 days. Cells resistant to puromycin were subjected to clonal selection by the limiting dilution method. Overexpression of ALDH1A1 was confirmed by western blots and real-time PCR.
as §1
as §2, with “protein. […]” for “protein.”

[3] = system: SKOV3-TRip2 and SKOV3-ip1 cells; experiment: Cell uptake of radiotracer, drug-resistant vs drug-sensitive SKOV3 cells; format: cell-based, human
Description: as §1, §2
Next, the time-dependent uptake of the of the radiotracers PQM-H-001 ([^18F]PQM-H-001) and PQM-H-002 ([^125I]PQM-H-002) was profiled in drug-resistant SKOV3-Trip2 and drug-sensitive SKOV3-ip1 cell lines (Pereira, R., et al. 2019).

[4] = biological target: T1, human recombinant ALDH1A1 (Homo sapiens, UniProt P00352); experiment: ALDH activity colorimetric assay (Biovision), ALDH1A1; format: biochemical; details: Table 1, class symbols
T1 construct: purchased bio-techne
T1 sequence (P00352 1-501): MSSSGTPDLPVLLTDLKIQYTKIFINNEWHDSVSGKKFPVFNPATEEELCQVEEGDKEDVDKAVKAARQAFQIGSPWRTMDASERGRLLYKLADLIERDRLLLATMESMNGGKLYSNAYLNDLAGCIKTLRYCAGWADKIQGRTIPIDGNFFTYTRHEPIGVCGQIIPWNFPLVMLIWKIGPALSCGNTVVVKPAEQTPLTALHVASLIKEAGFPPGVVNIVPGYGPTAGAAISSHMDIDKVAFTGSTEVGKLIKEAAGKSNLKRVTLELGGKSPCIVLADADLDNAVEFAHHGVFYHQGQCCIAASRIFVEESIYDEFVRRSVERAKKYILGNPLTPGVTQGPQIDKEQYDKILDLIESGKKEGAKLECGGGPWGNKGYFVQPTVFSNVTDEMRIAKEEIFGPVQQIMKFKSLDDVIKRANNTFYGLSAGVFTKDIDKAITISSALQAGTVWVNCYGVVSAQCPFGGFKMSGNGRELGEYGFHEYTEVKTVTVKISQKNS
Description: ALDH substrate kinetics were measured using an ALDH activity colorimetric assay kit (Biovision) according to the manufacturer's instructions. 1 μg/well human recombinant ALDH1A1 (bio-techne), ALDH2 (abcam), or ALDH3A1 (ATGen Co., Ltd) were used. The assay was initiated by the addition of enzyme after all reagents were pre-warmed to 37° C. Plates were read in kinetic mode on a Multiskan FC plate reader (Thermo Scientific) at 450 nm over 40 min at 37° C.
The in vitro potency of the cold, non-radioactive reference compound compared against two different ALDH isoforms, ALDH1A1 and ALDH2 (using the ALDH activity colorimetric assay Kit (Biovision)).
Other reference compounds (PQM-C) were compared against ALDH1A1 (using the ALDH activity colorimetric assay Kit (Biovision)).

Row | Structure (SMILES) | IC50 [4] [nM] | further results
1 | CS(=O)(=O)N1CCN(C(=O)c2cnc3ccc([125I])cc3c2-c2ccc(C3(C#N)CC3)cc2)CC1 [PQM-H-002, 1-(4-(6-(iodo-^125I)-3-(4-(methylsulfonyl)piperazine-1-carbonyl)quinolin-4-yl)phenyl)cyclopropane-1-carbonitrile] |  | fold difference in radiotracer retention, A549-WT vs A549-KO-ALDH1A1 [1]: 40 fold; fold difference in radiotracer retention, HEK293-ALDH1A1 vs. HEK293-WT [2]: 56 fold; Radiotracer retention, drug resistant versus drug-sensitive cells [3]: 200 times higher
2 | CS(=O)(=O)N1CCN(C(=O)c2cnc3cc(I)ccc3c2-c2ccc(C3(C#N)CC3)cc2)CC1 [PQM-C-012, 1-(4-(7-Iodo-3-(4-(methylsulfonyl)piperazine-1-carbonyl)quinolin-4-yl)phenyl)cyclopropane-1-carbonitrile] | 10 to 100 | 
3 | CS(=O)(=O)N1CCN(C(=O)c2cnc3ccccc3c2-c2ccc(C3(C#N)CC3)c([125I])c2)CC1 [PQM-H-022, 1-(2-(fluoro-^125I)-4-(3-(4-(methylsulfonyl)piperazine-1-carbonyl)quinolin-4-yl)phenyl)cyclopropane-1-carbonitrile] |  | fold difference in radiotracer retention, A549-WT vs A549-KO-ALDH1A1 [1]: 6 fold
4 | CS(=O)(=O)N1CCN(C(=O)c2cnc3ccccc3c2N2CCC(C#N)(c3ccc(I)cc3)CC2)CC1 [PQM-C-027, 4-(4-iodophenyl)-1-(3-(4-(methylsulfonyl)piperazine-1-carbonyl)quinolin-4-yl)piperidine-4-carbonitrile] | 100 to 1000 | 
5 | CS(=O)(=O)N1CCN(C(=O)c2cnc3ccccc3c2N2CCC(C#N)(c3ccc(F)cc3)CC2)CC1 [PQM-C-026, 4-(4-fluorophenyl)-1-(3-(4-(methylsulfonyl)piperazine-1-carbonyl)quinolin-4-yl)piperidine-4-carbonitrile] | ≤ 10 | 
6 | CS(=O)(=O)N1CCN(C(=O)c2cnc3c(F)cccc3c2-c2ccc(C3(C#N)CC3)cc2)CC1 [PQM-C-016, 1-(4-(8-Fluoro-3-(4-(methylsulfonyl)piperazine-1-carbonyl)quinolin-4-yl)phenyl)cyclopropane-1-carbonitrile] | 10 to 100 | 
7 | CS(=O)(=O)N1CCN(C(=O)c2cnc3c(I)cccc3c2-c2ccc(C3(C#N)CC3)cc2)CC1 [PQM-C-017, 1-(4-(8-Iodo-3-(4-(methylsulfonyl)piperazine-1-carbonyl)quinolin-4-yl)phenyl)cyclopropane-1-carbonitrile] | 10 to 100 | 
8 | CS(=O)(=O)N1CCN(C(=O)c2cnc3c([N+](=O)[O-])cc(I)cc3c2-c2ccc(C3(C#N)CC3)cc2)CC1 [PQM-C-007, 1-(4-(6-Iodo-3-(4-(methylsulfonyl)piperazine-1-carbonyl)-8-nitroquinolin-4-yl)phenyl)cyclopropane-1-carbonitrile] | 10 to 100 | 
9 | CS(=O)(=O)N1CCN(C(=O)c2cnc3cc(F)ccc3c2-c2ccc(C3(C#N)CC3)cc2)CC1 [PQM-C-011, 1-(4-(7-Fluoro-3-(4-(methylsulfonyl)piperazine-1-carbonyl)quinolin-4-yl)phenyl)cyclopropane-1-carbonitrile] | 10 to 100 | 
10 | CS(=O)(=O)N1CCN(C(=O)c2cnc3c([N+](=O)[O-])cc([125I])cc3c2-c2ccc(C3(C#N)CC3)cc2)CC1 [PQM-H-007, 1-(4-(6-(iodo-^125I)-3-(4-(methylsulfonyl)piperazine-1-carbonyl)-8-nitroquinolin-4-yl)phenyl)cyclopropane-1-carbonitrile] |  | fold difference in radiotracer retention, A549-WT vs A549-KO-ALDH1A1 [1]: 17 fold; fold difference in radiotracer retention, HEK293-ALDH1A1 vs. HEK293-WT [2]: 2 fold
11 | CS(=O)(=O)N1CCN(C(=O)c2cnc3ccccc3c2-c2ccc(C3(C#N)CC3)c(F)c2)CC1 [PQM-C-021] | ≤ 10 | 
12 | CS(=O)(=O)N1CCN(C(=O)c2cnc3c([125I])cccc3c2-c2ccc(C3(C#N)CC3)cc2)CC1 [PQM-H-017, 1-(4-(8-(fluoro-^125I)-3-(4-(methylsulfonyl)piperazine-1-carbonyl)quinolin-4-yl)phenyl)cyclopropane-1-carbonitrile] |  | fold difference in radiotracer retention, A549-WT vs A549-KO-ALDH1A1 [1]: 16 fold; fold difference in radiotracer retention, HEK293-ALDH1A1 vs. HEK293-WT [2]: 6 fold
13 | CS(=O)(=O)N1CCN(C(=O)c2cnc3c([N+](=O)[O-])cc(F)cc3c2-c2ccc(C3(C#N)CC3)cc2)CC1 [PQM-C-006, 1-(4-(6-Fluoro-3-(4-(methylsulfonyl)piperazine-1-carbonyl)-8-nitroquinolin-4-yl)phenyl)cyclopropane-1-carbonitrile] | 10 to 100 | 
14 | CS(=O)(=O)N1CCN(C(=O)c2cnc3ccccc3c2-c2ccc(C3(C#N)CC3)c(I)c2)CC1 [PQM-C-022, 1-(2-Iodo-4-(3-(4-(methylsulfonyl)piperazine-1-carbonyl)quinolin-4-yl)phenyl)cyclopropane-1-carbonitrile] | 1000 to 10000 | 
